# In ChEMBL document CHEMBL5506055, “Hit-to-Lead Optimization of the Natural Product Oridonin as Novel NLRP3 Inflammasome Inhibitors with Potent Anti-Inflammation Activity” (J Med Chem, 2024):
# pIC50: −log10 of the molar value. The source made the active and inactive calls. The calls are words filed in the database; no cut-off is given here.
# Assays:
# [1] = target: NACHT, LRR and PYD domains-containing protein 3 (Mus musculus) (UniProt Q8R4B8); test: Binding affinity to NLRP3 in mouse BMDMs at 10^-2 to 10^3 uM incubated for 10 to 90 mins by ITDRF; type: cell-based; details: BMDM, dose 0.01-1000 µM, time 10-90 min
# [2] = Stability in human liver microsomes assessed as half life preincubated for 5 mins with NADPH followed by compound addition and measured upto 120 mins by LC-MS/MS analysis; type: ADME, Microsome; details: time < 125 min
# [3] = Half-life in ICR mouse at 1 mg/kg, iv measured upto 24 hrs by LC-MS/MS method; type: ADME, organism-based; details: in vivo
# [4] = test system: Mus musculus; test: Antiinflammatory activity in C57BL/6 mouse model of arthritis assessed as reduction in MSU-induced NLRP3 expression in joints at 12.5 to 25 mg/kg, iv measured upto 24 hrs; type: functional, organism-based; details: dose 12.5-25 mg/kg
# [5] = target: NACHT, LRR and PYD domains-containing protein 3 (Mus musculus) (UniProt Q8R4B8); test: Inhibition of NLRP3 inflammasome activation in LPS-induced C57BL/6 mouse BMDMs assessed as effect on phosphorylated p65 expression at 50 to 200 nM preincubated for 24 hrs followed by LPS addition for 4 hrs by Western blotting analysis; type: cell-based; details: BMDM, dose 50-200 nM, time 28.0 hrs
# [6] = target: NACHT, LRR and PYD domains-containing protein 3 (Mus musculus) (UniProt Q8R4B8); test: Inhibition of NLRP3 inflammasome activation in LPS/ATP-induced C57BL/6 mouse BMDMs assessed as reduction in TNFalpha production at 50 to 200 nM preincubated with compound prior to LPS addition for 30 mins and further stimulated with ATP for 30 mins by Western blotting analysis; type: cell-based; details: BMDM, dose 50-200 nM, time 60.0 min
# [7] = Clearance in ICR mouse at 1 mg/kg, iv measured upto 24 hrs by LC-MS/MS method; type: ADME, organism-based; details: in vivo
# [8] = Stability in rat liver microsomes assessed as half life preincubated for 5 mins with NADPH followed by compound addition and measured upto 120 mins by LC-MS/MS analysis; type: ADME, Microsome; details: time < 125 min
# [9] = test system: Mus musculus; test: Antiinflammatory activity in C57BL/6 mouse model of arthritis assessed as reduction in MSU-induced joint swelling at 12.5 to 25 mg/kg, iv measured upto 24 hrs; type: functional, organism-based; details: dose 12.5-25 mg/kg
# [10] = target: NLR family CARD domain-containing protein 4 (Mus musculus) (UniProt Q3UP24); test: Inhibition of NLRC4 inflammasome activation in LPS/Poly(dA:dT)-induced C57BL/6 mouse BMDMs at 200 nM […] for 4 hrs followed by compound addition for 30 mins and further Poly(dA:dT) transfected with Lipo-3000 for 4 hrs; type: cell-based; details: BMDM, time 4.5 hrs
# [11] = Hepatotoxicity in mouse assessed as change in AST/ALT ratio at 100 mg/kg, po or 12.5 to 25 mg/kg, iv; type: toxicity, organism-based; details: in vivo
# [12] = target: NACHT, LRR and PYD domains-containing protein 3 (Mus musculus) (UniProt Q8R4B8); test: Inhibition of NLRP3 inflammasome activation in LPS/ATP-induced C57BL/6 mouse BMDMs assessed as reduction in NLRP3 expression preincubated with compound prior to LPS addition for 30 mins and further stimulated with ATP for 30 mins by Western blotting analysis; type: cell-based; details: BMDM, dose 50-200 nM, time 60.0 min
# [13] = target: NACHT, LRR and PYD domains-containing protein 3 (Mus musculus) (UniProt Q8R4B8); test: Inhibition of NLRP3 inflammasome activation in LPS-induced C57BL/6 mouse BMDMs assessed as reduction in pro-IL-1beta mRNA level at 50 to 200 nM preincubated for 24 hrs followed by LPS addition for 4 hrs by qRT-PCR analysis; type: cell-based; details: BMDM, dose 50-200 nM, time 28.0 hrs
# [14] = test system: BMDM; test: Inhibition of mitochondrial ROS production in mouse BMDMs at 200 nM preincubated with LPS for 4 hrs followed by compound addition for 30 mins and further stimulated with ATP for 30 mins by confocal microscopic analysis; type: functional, cell-based; details: time 1.0 hrs
# [15] = Stability in mouse plasma assessed as half life measured upto 8 hrs; type: ADME, cell-free
# [16] = target: Voltage-gated inwardly rectifying potassium channel KCNH2 (Homo sapiens, UniProt Q12809); test: Inhibition of human ERG expressed in CHO cells; type: toxicity, cell-based
# [17] = target: NACHT, LRR and PYD domains-containing protein 3 (Mus musculus) (UniProt Q8R4B8); test: Inhibition of NLRP3 inflammasome activation in LPS-induced C57BL/6 mouse BMDMs assessed as effect on p65 expression at 50 to 200 nM preincubated for 24 hrs followed by LPS addition for 4 hrs by Western blotting analysis; type: cell-based; details: BMDM, dose 50-200 nM, time 28.0 hrs
# [18] = target: NACHT, LRR and PYD domains-containing protein 3 (Mus musculus) (UniProt Q8R4B8); test: (§1) Inhibition of NLRP3 inflammasome activation in LPS/ATP-induced C57BL/6 mouse BMDMs assessed as inhibition of ASC oligomerization by measuring reduction in ASC expression at 50 to 200 nM preincubated with LPS for 4 hrs followed by compound addition for 30 mins and further stimulated with ATP for 30 mins by Western blotting analysis; type: cell-based; details: BMDM, dose 50-200 nM, time 1.0 hrs
# [19] = target: NACHT, LRR and PYD domains-containing protein 3 (Mus musculus) (UniProt Q8R4B8); test: Inhibition of NLRP3 inflammasome activation in LPS/ATP-induced C57BL/6 mouse BMDMs assessed as reduction in IL-1beta secretion at 100 nM preincubated with LPS for 4 hrs followed by compound addition for 30 mins and further stimulated with ATP for 30 mins by ELISA relative to control; type: cell-based; details: BMDM, time 1.0 hrs
# [20] = Cmax in ICR mouse at 10 mg/kg, po measured upto 24 hrs by LC-MS/MS method; type: ADME, organism-based; details: in vivo
# [21] = target: NACHT, LRR and PYD domains-containing protein 3 (Mus musculus) (UniProt Q8R4B8); test: as §1, with “in pro-caspase-1” for “in ASC”; type: cell-based; details: BMDM, dose 50-200 nM, time 1.0 hrs
# [22] = target: T1, Interferon-inducible protein AIM2 (Mus musculus) (UniProt Q91VJ1); test: Inhibition of AIM2 inflammasome activation in LPS/flagellin-induced C57BL/6 mouse BMDMs at 200 nM […] for 4 hrs followed by compound addition for 30 mins and further stimulated with flagellin for 4 hrs; type: cell-based; details: BMDM, time 4.5 hrs
# T1 sequence (whole entry): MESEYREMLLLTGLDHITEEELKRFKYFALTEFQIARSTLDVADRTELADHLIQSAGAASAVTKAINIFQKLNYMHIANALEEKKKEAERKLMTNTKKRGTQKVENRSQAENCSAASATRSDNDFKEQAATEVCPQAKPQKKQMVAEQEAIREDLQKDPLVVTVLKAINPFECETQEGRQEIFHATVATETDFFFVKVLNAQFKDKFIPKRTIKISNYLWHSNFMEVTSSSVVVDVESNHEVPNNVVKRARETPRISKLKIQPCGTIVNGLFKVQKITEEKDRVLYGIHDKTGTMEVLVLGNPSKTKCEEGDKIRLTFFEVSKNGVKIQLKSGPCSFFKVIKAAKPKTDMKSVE
# [23] = test system: Mus musculus; test: Antiinflammatory activity in MSU-induced C57BL/6 mouse model of arthritis at 100 mg/kg, po measured upto 24 hrs; type: functional, organism-based
# [24] = target: Nlrp3/Pycard (Mus musculus) (UniProt Q8R4B8+Q9EPB4); test: Inhibition of NLRP3/ASC protein-protein interaction in LPS/ATP-induced C57BL/6 mouse BMDMs at 200 nM preincubated with LPS for 4 hrs followed by compound addition for 30 mins and further stimulated with ATP for 30 mins by Western blotting analysis; type: cell-based; details: BMDM, time 1.0 hrs
# [25] = target: NACHT, LRR and PYD domains-containing protein 3 (Mus musculus) (UniProt Q8R4B8); test: Inhibition of NLRP3 inflammasome activation in LPS/MSU-induced C57BL/6 mouse BMDMs at 200 nM preincubated with LPS for 4 hrs followed by compound addition for 30 mins and further stimulated with MSU for 6 hrs by ELISA; type: cell-based; details: BMDM, time 6.5 hrs
# [26] = target: NACHT, LRR and PYD domains-containing protein 3 (Mus musculus) (UniProt Q8R4B8); test: as §1, with “IL-1beta secretion” for “ASC expression”; type: cell-based; details: BMDM, dose 50-200 nM, time 1.0 hrs
# NACHT, LRR and PYD domains-containing protein 3 (Mus musculus), sequence (Q8R4B8 whole entry, the tested form may be a part): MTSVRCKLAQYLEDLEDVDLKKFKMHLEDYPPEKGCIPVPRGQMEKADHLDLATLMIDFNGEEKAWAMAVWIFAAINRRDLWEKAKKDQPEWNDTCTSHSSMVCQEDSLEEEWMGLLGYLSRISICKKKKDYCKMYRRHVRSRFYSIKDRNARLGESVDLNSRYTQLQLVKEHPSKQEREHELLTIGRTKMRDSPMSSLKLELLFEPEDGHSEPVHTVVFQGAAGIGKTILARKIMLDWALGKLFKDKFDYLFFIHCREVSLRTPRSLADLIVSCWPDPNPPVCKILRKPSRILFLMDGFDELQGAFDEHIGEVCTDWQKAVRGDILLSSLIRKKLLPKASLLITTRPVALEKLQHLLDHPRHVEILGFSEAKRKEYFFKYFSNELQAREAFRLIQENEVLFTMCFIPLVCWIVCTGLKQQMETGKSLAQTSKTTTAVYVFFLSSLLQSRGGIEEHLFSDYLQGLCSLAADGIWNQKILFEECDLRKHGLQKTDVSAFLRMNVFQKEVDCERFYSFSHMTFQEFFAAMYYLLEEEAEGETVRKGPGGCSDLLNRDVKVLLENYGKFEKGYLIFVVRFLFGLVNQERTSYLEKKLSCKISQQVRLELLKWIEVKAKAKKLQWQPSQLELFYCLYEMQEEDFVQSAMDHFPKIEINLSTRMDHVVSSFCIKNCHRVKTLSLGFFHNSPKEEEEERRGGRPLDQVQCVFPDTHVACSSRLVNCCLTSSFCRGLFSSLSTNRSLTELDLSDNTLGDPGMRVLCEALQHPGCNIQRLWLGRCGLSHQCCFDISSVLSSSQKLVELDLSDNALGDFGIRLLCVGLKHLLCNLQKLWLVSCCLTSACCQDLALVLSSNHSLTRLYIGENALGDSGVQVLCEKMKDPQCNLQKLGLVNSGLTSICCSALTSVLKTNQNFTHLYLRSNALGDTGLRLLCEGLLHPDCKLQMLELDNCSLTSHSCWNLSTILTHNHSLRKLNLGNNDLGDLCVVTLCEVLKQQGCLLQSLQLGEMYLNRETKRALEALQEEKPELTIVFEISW
# Nlrp3/Pycard (Mus musculus), sequence (Q8R4B8 whole entry, looked up, the tested form may be a part): as the sequence (Q8R4B8 whole entry, the tested form may be a part) above
# Nlrp3/Pycard (Mus musculus), sequence (Q9EPB4 whole entry, looked up, the tested form may be a part): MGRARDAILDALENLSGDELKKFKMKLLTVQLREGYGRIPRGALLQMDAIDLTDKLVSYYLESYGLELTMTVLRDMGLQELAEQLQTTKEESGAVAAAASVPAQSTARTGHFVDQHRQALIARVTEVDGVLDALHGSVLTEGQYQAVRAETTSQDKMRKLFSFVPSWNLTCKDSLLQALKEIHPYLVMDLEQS
# Voltage-gated inwardly rectifying potassium channel KCNH2, sequence (Q12809 whole entry, the tested form may be a part): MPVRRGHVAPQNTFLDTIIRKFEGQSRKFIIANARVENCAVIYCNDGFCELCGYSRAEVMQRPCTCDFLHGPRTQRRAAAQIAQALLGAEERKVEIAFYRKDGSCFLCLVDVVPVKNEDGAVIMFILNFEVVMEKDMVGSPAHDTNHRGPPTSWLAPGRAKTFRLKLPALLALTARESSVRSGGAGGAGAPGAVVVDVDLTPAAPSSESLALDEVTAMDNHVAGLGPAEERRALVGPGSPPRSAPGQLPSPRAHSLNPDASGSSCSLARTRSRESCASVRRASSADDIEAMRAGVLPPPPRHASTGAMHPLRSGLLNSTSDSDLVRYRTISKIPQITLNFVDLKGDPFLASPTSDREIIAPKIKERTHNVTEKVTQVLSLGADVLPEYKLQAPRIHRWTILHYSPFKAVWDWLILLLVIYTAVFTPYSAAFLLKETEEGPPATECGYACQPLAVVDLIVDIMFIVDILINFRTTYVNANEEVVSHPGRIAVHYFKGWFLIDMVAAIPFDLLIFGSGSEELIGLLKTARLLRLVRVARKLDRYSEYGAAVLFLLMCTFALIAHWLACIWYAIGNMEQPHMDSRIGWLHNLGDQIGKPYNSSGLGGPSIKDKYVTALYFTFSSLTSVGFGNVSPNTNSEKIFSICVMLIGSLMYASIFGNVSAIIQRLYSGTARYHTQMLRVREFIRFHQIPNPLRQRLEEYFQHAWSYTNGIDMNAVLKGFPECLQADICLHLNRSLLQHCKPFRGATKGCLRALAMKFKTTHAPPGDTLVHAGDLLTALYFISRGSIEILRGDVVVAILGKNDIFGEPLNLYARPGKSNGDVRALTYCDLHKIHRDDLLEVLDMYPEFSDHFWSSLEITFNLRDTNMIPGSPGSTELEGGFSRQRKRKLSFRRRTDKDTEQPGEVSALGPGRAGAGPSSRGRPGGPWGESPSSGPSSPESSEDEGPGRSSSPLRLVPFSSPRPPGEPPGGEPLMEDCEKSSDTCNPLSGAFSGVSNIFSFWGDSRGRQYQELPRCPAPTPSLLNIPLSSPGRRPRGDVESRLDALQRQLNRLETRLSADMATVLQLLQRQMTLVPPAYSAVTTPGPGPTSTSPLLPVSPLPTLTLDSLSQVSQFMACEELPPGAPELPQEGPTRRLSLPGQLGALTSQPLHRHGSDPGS
# NLR family CARD domain-containing protein 4 (Mus musculus), sequence (Q3UP24 whole entry, the tested form may be a part): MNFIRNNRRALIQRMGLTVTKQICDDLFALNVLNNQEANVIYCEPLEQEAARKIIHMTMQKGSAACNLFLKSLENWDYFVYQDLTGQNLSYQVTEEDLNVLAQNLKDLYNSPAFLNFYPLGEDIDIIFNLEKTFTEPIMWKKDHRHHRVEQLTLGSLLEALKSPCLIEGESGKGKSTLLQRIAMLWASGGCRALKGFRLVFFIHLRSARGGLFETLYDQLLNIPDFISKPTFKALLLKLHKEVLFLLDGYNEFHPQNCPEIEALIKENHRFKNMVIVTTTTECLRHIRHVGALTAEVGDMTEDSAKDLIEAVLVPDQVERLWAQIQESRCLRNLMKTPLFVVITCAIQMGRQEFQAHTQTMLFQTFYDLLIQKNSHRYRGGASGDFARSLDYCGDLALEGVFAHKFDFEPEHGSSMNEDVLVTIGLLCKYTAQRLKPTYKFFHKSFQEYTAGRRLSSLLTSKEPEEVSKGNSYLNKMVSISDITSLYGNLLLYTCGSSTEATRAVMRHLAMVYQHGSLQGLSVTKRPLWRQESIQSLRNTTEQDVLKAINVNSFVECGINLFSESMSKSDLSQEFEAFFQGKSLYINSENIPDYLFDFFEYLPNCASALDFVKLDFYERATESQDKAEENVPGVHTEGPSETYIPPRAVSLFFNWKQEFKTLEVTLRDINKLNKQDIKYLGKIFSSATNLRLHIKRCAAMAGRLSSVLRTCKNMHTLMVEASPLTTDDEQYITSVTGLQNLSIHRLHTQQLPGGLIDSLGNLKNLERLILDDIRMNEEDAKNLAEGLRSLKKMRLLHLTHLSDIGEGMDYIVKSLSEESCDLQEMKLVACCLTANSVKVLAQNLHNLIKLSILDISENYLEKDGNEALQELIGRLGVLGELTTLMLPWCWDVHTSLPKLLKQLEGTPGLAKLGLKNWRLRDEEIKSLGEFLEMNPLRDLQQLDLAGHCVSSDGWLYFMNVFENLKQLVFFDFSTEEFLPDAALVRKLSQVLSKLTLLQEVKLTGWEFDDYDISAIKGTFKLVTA
smiles,measurement,setting,value
C=C1C(=O)[C@]23[C@H](O)[C@H]1CC[C@H]2[C@]12C=CCC(C)(C)[C@H]1[C@H](O)[C@@]3(OCCC(=O)O)OC2,Activity,[1],Active
same,half-life,[2],3.03 h
same,half-life,[3],1.98 h
same,Activity,[4],inactive
same,inhibition,[5],inactive
same,inhibition,[6],inactive
same,clearance,[7],69.1 mL/min/kg
same,half-life,[8],3.19 h
same,Activity,[9],Active
same,inhibition,[10],Active
same,Activity,[11],Non-Toxic
same,inhibition,[12],inactive
same,inhibition,[13],inactive
same,inhibition,[14],inactive
same,half-life,[15],15.2 h
same,pIC50,[16],< 4.40
same,inhibition,[17],inactive
same,inhibition,[18],inactive
same,inhibition,[19],64.3%
same,Cmax,[20],279 ng/mL
same,inhibition,[21],inactive
same,inhibition,[22],Active
same,Activity,[23],Active
same,inhibition,[24],Active
same,inhibition,[25],Active
same,inhibition,[26],Active
